In US10633630B2, “Acceleration of Mycobacterium growth” (ST GEORGE'S HOSPITAL MEDICAL SCHOOL, priority 2014, dated 2020):
Non-standard residues stand in square brackets, D forms with d. No end group written: not given here. βAla = NCCC(=O)O

What was measured:
[1] = tested on: Mycobacterium avium subspecies paratuberculosis (MAP); assay: Screen of TiKa peptide supplements for growth effects on MAP cultures (Example 1); assay type: cell-based; conditions: supplemented at 20 mg/ml (final); over a 20 day period; vs identical inocula with no added supplement
Experimental: FX1=reduction in lag phase, FX2=increase in division rate.
The lag phase and division rate can be determined using routine methods in the art. Typically, growth and expansion of cells of a bacterial culture is determined by monitoring the optical density (OD) of the culture (e.g. the OD600 or the OD800 as illustrated in the Examples section below). The lag phase and the division rate can be determined from plots of the OD over time.
Using Mycobacterium avium subspecies paratuberculosis (MAP) as a target organism a bank of 109 short L enantiomer peptides and one D enantiomer peptide (TiKa 14D) were screened for the ability to supplement defined media (see below) to produce growth effects that produce biomass more rapidly than identical inocula of MAP with no added supplement.
The effects can be defined as: • A significant decrease in lag time (i.e the time it takes to recover from subculture and begin growing exponentially). With standard low inoculum this is at least 5 days but there is evidence that this phase can also be greatly extended in low inocula (see FIGS. 3 and 4). • An increase in division rate.

[2] = Growth curves at various concentrations of peptide (Example 5); assay type: cell-based; conditions: for doubling time relative to the control / lag phase relative to the control without supplement: above the optimum concentration; for effects on the rate of division: below the optimum concentration; for optimum concentration of supplement: concentrations up to 80 μg/ml tested
Experimental: Part (A) presents results for the TiKa 14D peptide and part (B) presents results for the TiKa 102 peptide.
TiKa 14D and TiKa 102 were tested to identify the optimum concentration of supplement. Results are presented in FIGS. 5A and B for concentrations up to 80 μg/ml. […] Below the optimum concentration, the lag phase was either not affected (10 μg/ml of TiKa 14D) or was inhibited relative to the control (slightly for TiKa 14D at 5 μg/ml and for TiKa 102 at 20 μg/ml).

[3] = tested on: cultures with different starting OD600 values; assay: Effects of TiKa 14D on cultures with different starting OD600 values (Example 3); assay type: cell-based; conditions: 20 μg/ml
Experimental: The effects of TiKa 14D on cultures with different starting OD600 values were tested. The TiKa 14D was present at a concentration of 20 μg/ml.
As shown in this Figure, at a starting OD600 of 0.2 TiKa 14D reduced the time to reach an OD600 of 0.6 by 7 days relative to a control without the supplement. At a starting OD600 of approximately 0.4, TiKa 14D reduced the time to reach an OD600 of 0.6 by 2 days relative to the control without the supplement.

MTB = assay: Time to positivity in BacTAlert liquid media system (Example 4); assay type: cell-based
[4] = tested on: Mycobacterium avium subspecies paratuberculosis; assay type: cell-based; conditions: TiKa 14D 20 μg/ml
[5] = tested on: Mycobacterium tuberculosis

| Substance | effect on MAP test culture (decrease in lag time, increase in division rate) [1] | doubling time relative to the control [2] | lag phase relative to the control without supplement [2] | effects on the rate of division [2] | optimum concentration of supplement [2] [µg/mL] | further results |
| --- | --- | --- | --- | --- | --- | --- |
| RRWRIVVIRVRR [TiKa 69] | positive effects |  |  |  |  |  |
| RRWRIVVIRVRR-bA-bA-C (RRWRIVVIRVRR[βAla][βAla]C) [TiKa 86] | positive effects |  |  |  |  |  |
| RRWRIVVIRVRR-BB-K(biotin) [TiKa 102] | positive effects | still also reduced | still improved | decreased proportionally | 40 | lag phase relative to the control ([2]; below the optimum concentration: 20 μg/ml): inhibited |
| RLARIVVIRVAR-BB-K(biotin) [TiKa 103] | positive effects |  |  |  |  |  |
| WKIVFWWRR [TiKa 14D] | positive effects | still also reduced | still improved | decreased proportionally | 20 | lag phase relative to the control ([2]; below the optimum concentration: 5 μg/ml): inhibited; lag phase relative to the control ([2]; below the optimum concentration: 10 μg/ml): not affected; reduction of the time to reach an OD600 of 0.6 relative to a control without the supplement ([3]; starting OD600 of 0.2): 7 days; reduction of the time to reach an OD600 of 0.6 relative to a control without the supplement ([3]; starting OD600 of approximately 0.4): 2 days; Time to Positivity (TTP) compared to control media (MTB): decreased; effect on growth curve [4]: positive effects; effect on growth curve [5]: positive effects |
